In ChEMBL document CHEMBL1201862, “PubChem BioAssay data set” (2004):
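Cells were grown in 96-well plates and exposed to each compound for 48 hours at five concentrations; endpoints were interpolated linearly between bracketing concentrations, or set to the highest concentration if not reached. GI50 = concentration required for 50% inhibition of growth.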 The source made the active and inactive calls. No stated cut-off is given here; in the data, active = GI50 up to about 1.1 µM and inactive = higher.

How the values were obtained:
Assay in all cases: growth of human tumour cells (NCI), 48 h
EKVX = test system: EKVX
HT-29 = test system: HT-29
K562 = test system: K562
KM12 = test system: KM12
M14 = test system: M14
MCF7 = test system: MCF7
NCI-H226 = test system: NCI-H226
NCI-H23 = test system: NCI-H23
OVCAR-3 = test system: OVCAR-3
OVCAR-4 = test system: OVCAR-4
OVCAR-5 = test system: OVCAR-5
OVCAR-8 = test system: OVCAR-8
SF-295 = test system: SF-295
SK-MEL-28 = test system: SK-MEL-28
SK-OV-3 = test system: SK-OV-3
SNB-75 = test system: SNB-75
TK-10 = test system: TK-10
UO-31 = test system: UO-31
RXF 393 = test system: RXF 393
SF-539 = test system: SF-539

Measured: GI50

O=C1/C(=C/c2ccccc2)NC(=S)N1CN1CCOCC1
inactive: EKVX > 100 µM | HT-29 > 100 µM | K562 > 100 µM | KM12 > 100 µM | M14 > 100 µM | MCF7 > 100 µM | NCI-H226 > 100 µM | NCI-H23 > 100 µM | OVCAR-3 > 100 µM | OVCAR-4 72.8 µM | OVCAR-5 > 100 µM | OVCAR-8 > 100 µM | SF-295 > 100 µM | SK-MEL-28 > 100 µM | SK-OV-3 > 100 µM | SNB-75 > 100 µM | TK-10 > 100 µM | UO-31 > 100 µM

O=P(CCOc1ccccc1OCCP(=O)(c1ccccc1)c1ccc2c(c1)OCCOCCOCCOCCO2)(c1ccccc1)c1ccc2c(c1)OCCOCCOCCOCCO2 (stereo not given)
inactive: EKVX > 100 µM | HT-29 > 100 µM | K562 > 100 µM | M14 > 100 µM | NCI-H226 > 100 µM | NCI-H23 > 100 µM | OVCAR-3 > 100 µM | OVCAR-4 > 100 µM | OVCAR-5 > 100 µM | OVCAR-8 > 100 µM | RXF 393 > 100 µM | SF-295 > 100 µM | SF-539 > 100 µM | SK-MEL-28 > 100 µM | SK-OV-3 > 100 µM | SNB-75 > 100 µM | TK-10 > 100 µM | UO-31 > 100 µM

C=CCc1cccc2cc(C(N)=O)c(=N)oc12
inactive: HT-29 > 100 µM | KM12 > 100 µM | M14 > 100 µM | NCI-H226 43.9 µM | NCI-H23 > 100 µM | OVCAR-3 > 100 µM | OVCAR-4 > 100 µM | OVCAR-5 > 100 µM | OVCAR-8 > 100 µM | RXF 393 > 100 µM | SK-MEL-28 > 100 µM | SK-OV-3 90.2 µM | SNB-75 54.7 µM

COC(=O)C(=O)C(C(C)=O)C(=O)C(=O)Nc1ccc(C)cc1C (stereo not given)
inactive: EKVX > 100 µM | HT-29 > 100 µM | K562 > 100 µM | KM12 > 100 µM | M14 > 100 µM | NCI-H226 > 100 µM | NCI-H23 > 100 µM | OVCAR-4 > 100 µM | OVCAR-5 > 100 µM | OVCAR-8 > 100 µM | RXF 393 > 100 µM | SF-295 > 100 µM | SF-539 > 100 µM | SK-MEL-28 > 100 µM | SK-OV-3 > 100 µM | SNB-75 > 100 µM | TK-10 > 100 µM | UO-31 > 100 µM

CC(C)(C)[Si](OC1CCOC1=O)(c1ccccc1)c1ccccc1 (stereo not given)
inactive: EKVX 31.3 µM | HT-29 15.3 µM | KM12 > 10 µM | M14 18 µM | NCI-H23 19.4 µM | OVCAR-3 13.1 µM | OVCAR-5 26.7 µM | OVCAR-8 23.4 µM | SF-295 16 µM | SF-539 23.4 µM | SK-MEL-28 22.3 µM | SK-OV-3 33.9 µM | SNB-75 23.6 µM | TK-10 22.5 µM | UO-31 27.1 µM

CC(C(=O)n1nnc2ccccc21)N(c1ccccc1)c1ccccc1 (stereo not given)
inactive: EKVX 68.2 µM | HT-29 > 100 µM | K562 > 100 µM | M14 > 100 µM | NCI-H226 87.7 µM | NCI-H23 56.8 µM | OVCAR-3 66.7 µM | OVCAR-5 > 100 µM | OVCAR-8 > 100 µM | RXF 393 > 100 µM | SF-295 > 100 µM | SF-539 > 100 µM | SK-MEL-28 > 100 µM | SK-OV-3 > 100 µM | SNB-75 69.5 µM | TK-10 > 100 µM | UO-31 > 100 µM

NS(=O)(=O)c1cc2c(cc1Cl)NC(C(=O)NNC(=O)c1ccncc1)=NS2(=O)=O
inactive: EKVX > 100 µM | HT-29 > 100 µM | KM12 > 100 µM | M14 > 100 µM | NCI-H226 > 100 µM | NCI-H23 > 100 µM | OVCAR-3 > 100 µM | OVCAR-4 > 100 µM | OVCAR-8 > 100 µM | RXF 393 > 100 µM | SF-295 > 100 µM | SF-539 > 100 µM | SK-MEL-28 > 100 µM | SK-OV-3 > 100 µM | SNB-75 > 100 µM | TK-10 > 100 µM | UO-31 > 100 µM

NC(=S)N/N=C1\CC(c2ccccc2)Nc2ccccc21 (stereo not given)
inactive: EKVX 55.7 µM | HT-29 17.2 µM | K562 12.2 µM | M14 42.1 µM | NCI-H226 39 µM | NCI-H23 30.2 µM | OVCAR-3 40.3 µM | OVCAR-8 41.6 µM | SF-295 60.3 µM | SF-539 41.7 µM | SK-MEL-28 40.1 µM | SK-OV-3 39.1 µM | SNB-75 16.6 µM | TK-10 71.8 µM | UO-31 24.5 µM

CC[C@@H]1C[C@@H]2CN3CCc4c([nH]c5ccc(OC)cc45)C(COC(=O)c4ccc(OC)c(OC)c4)(C2)C13
inactive: EKVX 53.5 µM | HT-29 7.82 µM | K562 7.91 µM | KM12 23.8 µM | M14 14.9 µM | NCI-H226 10.4 µM | NCI-H23 10.3 µM | OVCAR-3 16.1 µM | OVCAR-4 26.4 µM | OVCAR-5 22.6 µM | OVCAR-8 31.6 µM | RXF 393 14.2 µM | SF-295 19.5 µM | SF-539 18.8 µM | SK-MEL-28 43.3 µM | SNB-75 24.5 µM | TK-10 32.2 µM | UO-31 16.8 µM

CON(C)C(=O)C(Cc1ccccc1)NC(=O)OCc1ccccc1 (stereo not given)
inactive: EKVX > 100 µM | HT-29 > 100 µM | K562 77.1 µM | KM12 > 100 µM | M14 > 100 µM | NCI-H23 > 100 µM | OVCAR-3 > 100 µM | OVCAR-4 > 100 µM | OVCAR-5 > 100 µM | OVCAR-8 > 100 µM | RXF 393 > 100 µM | SF-295 > 100 µM | SF-539 > 100 µM | SK-MEL-28 > 100 µM | SK-OV-3 > 100 µM | SNB-75 33.3 µM | TK-10 > 100 µM | UO-31 71.4 µM

NC(=O)c1csc(C2O[C@@H](COP(=O)(O)OP(=O)(O)OC[C@H]3OC(n4cnc5c(N)ncnc54)[C@H](O)[C@@H]3O)[C@H](O)[C@@H]2O)n1 (stereo not given in full)
inactive: EKVX > 100 µM | HT-29 87.5 µM | K562 23.6 µM | KM12 88.1 µM | M14 37.8 µM | NCI-H226 > 100 µM | NCI-H23 > 100 µM | OVCAR-3 > 100 µM | OVCAR-4 73.3 µM | OVCAR-5 > 100 µM | OVCAR-8 73.8 µM | SF-295 30 µM | SF-539 52 µM | SK-MEL-28 30 µM | SK-OV-3 > 100 µM | SNB-75 45 µM | TK-10 > 100 µM | UO-31 > 100 µM
